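96-well plates; 48 h exposure; 5 concentrations. Endpoints by linear interpolation between flanking doses. Not reached: highest tested concentration assigned. GI50 is the concentration that inhibits growth by half.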 The source made the active and inactive calls. Rule as the data show it: active = GI50 up to about 1.1 µM and inactive = higher.
Legend:
Assay in all cases: DTP human tumour cell line panel, 48 h
EKVX = system: EKVX
HCC 2998 = system: HCC 2998
HCT-15 = system: HCT-15
HOP-62 = system: HOP-62
HOP-92 = system: HOP-92
KM12 = system: KM12
MOLT-4 = system: MOLT-4
Malme-3M = system: Malme-3M
NCI-H460 = system: NCI-H460
OVCAR-4 = system: OVCAR-4
OVCAR-5 = system: OVCAR-5
OVCAR-8 = system: OVCAR-8
RXF 393 = system: RXF 393
SF-539 = system: SF-539
SK-MEL-28 = system: SK-MEL-28
SK-MEL-2 = system: SK-MEL-2
SK-OV-3 = system: SK-OV-3
U-251 = system: U-251
A498 = system: A498
SR = system: SR

SMILES | GI50 (EKVX) | GI50 (HCC 2998) | GI50 (HCT-15) [µM] | GI50 (HOP-62) | GI50 (HOP-92) | GI50 (KM12) | GI50 (MOLT-4) | GI50 (Malme-3M) | GI50 (NCI-H460) | GI50 (OVCAR-4) | GI50 (OVCAR-5) | GI50 (OVCAR-8) | GI50 (RXF 393) | GI50 (SF-539) | GI50 (SK-MEL-28) | GI50 (SK-MEL-2) | GI50 (SK-OV-3) | GI50 (U-251) | GI50 (A498) | GI50 (SR)
Nc1ccn(C2CCC(COP(=O)(O)OCC(O)COP(=O)(O)OCC3OC(n4cc(F)c(=O)[nH]c4=O)CC3O)O2)c(=O)n1 (stereo not drawn) | > 75.9 µM (inactive) | 0.656 µM (active) | 14.4 | 0.232 µM (active) | 0.0419 µM (active) | > 38.1 µM (inactive) | 0.102 µM (active) | > 53.8 µM (inactive) | < 0.01 µM (active) | > 23.7 µM (inactive) | 9.93 µM (inactive) | 0.157 µM (active) | 3.33 µM (inactive) | 0.0216 µM (active) | 26.4 µM (inactive) | 75.3 µM (inactive) | 59.2 µM (inactive) | 1.04 µM (active) | – | –
O=c1[nH]c(=O)n(C2OC(CO)C(O)C2O)c2nc(-c3ccc(-c4ccccc4)cc3)cnc12 (stereo not drawn) | > 100 µM (inactive) | > 100 µM (inactive) | > 100 | > 100 µM (inactive) | > 100 µM (inactive) | > 100 µM (inactive) | > 100 µM (inactive) | > 100 µM (inactive) | > 100 µM (inactive) | > 100 µM (inactive) | > 100 µM (inactive) | > 100 µM (inactive) | > 100 µM (inactive) | > 100 µM (inactive) | – | > 100 µM (inactive) | > 100 µM (inactive) | > 100 µM (inactive) | > 100 µM (inactive) | –
O=c1c(/C=C/c2c(O)ccc3ccccc23)nnc2sc(-c3cccc([N+](=O)[O-])c3)nn12 | 18.7 µM (inactive) | – | 4.43 | 18.2 µM (inactive) | 24.2 µM (inactive) | 22.1 µM (inactive) | 3.94 µM (inactive) | 11.4 µM (inactive) | – | 6.98 µM (inactive) | 33 µM (inactive) | 13.7 µM (inactive) | 19.4 µM (inactive) | – | > 100 µM (inactive) | 5.57 µM (inactive) | 30 µM (inactive) | 7.6 µM (inactive) | – | 4.38 µM (inactive)
CC(C)N(O)C(=N)c1ccccc1 | > 100 µM (inactive) | > 100 µM (inactive) | – | > 100 µM (inactive) | > 100 µM (inactive) | > 100 µM (inactive) | – | > 10 µM (inactive) | > 100 µM (inactive) | > 100 µM (inactive) | > 100 µM (inactive) | > 100 µM (inactive) | > 100 µM (inactive) | > 100 µM (inactive) | > 100 µM (inactive) | > 100 µM (inactive) | – | > 100 µM (inactive) | – | –
CCCCc1ccc(Nc2nc(OC)c3ncn(C4CC(O)C(CO)O4)c3n2)cc1 (stereo not drawn) | 1.58 µM (inactive) | 6.44 µM (inactive) | 13.9 | 34 µM (inactive) | 1.97 µM (inactive) | 16.5 µM (inactive) | 16.9 µM (inactive) | 20.7 µM (inactive) | 16.4 µM (inactive) | 18 µM (inactive) | 35.4 µM (inactive) | 16.4 µM (inactive) | 14.8 µM (inactive) | 13.7 µM (inactive) | – | 20.2 µM (inactive) | 13.2 µM (inactive) | 20.7 µM (inactive) | 19.7 µM (inactive) | –
CC(=O)c1nc(C#N)c(N)o1 | > 100 µM (inactive) | > 100 µM (inactive) | > 100 | > 100 µM (inactive) | > 100 µM (inactive) | > 100 µM (inactive) | > 100 µM (inactive) | > 100 µM (inactive) | > 100 µM (inactive) | > 100 µM (inactive) | > 100 µM (inactive) | > 100 µM (inactive) | > 100 µM (inactive) | > 100 µM (inactive) | > 100 µM (inactive) | > 100 µM (inactive) | > 100 µM (inactive) | > 100 µM (inactive) | > 100 µM (inactive) | –
COCN1C(=O)[C@@H]2CCCN2C(=O)c2cc(N)ccc21 | > 100 µM (inactive) | – | > 100 | > 100 µM (inactive) | – | > 100 µM (inactive) | – | > 100 µM (inactive) | – | > 100 µM (inactive) | > 100 µM (inactive) | > 100 µM (inactive) | > 100 µM (inactive) | > 100 µM (inactive) | > 100 µM (inactive) | > 100 µM (inactive) | > 100 µM (inactive) | > 100 µM (inactive) | > 100 µM (inactive) | –
COC(=O)C(=O)C(C#N)c1ccc(CC#N)cc1 (stereo not drawn) | > 100 µM (inactive) | – | > 100 | – | > 100 µM (inactive) | > 100 µM (inactive) | > 100 µM (inactive) | > 100 µM (inactive) | – | – | – | – | – | > 100 µM (inactive) | > 100 µM (inactive) | > 100 µM (inactive) | > 100 µM (inactive) | > 100 µM (inactive) | – | > 100 µM (inactive)
CC1(C)OC(=O)C(=C2CCC(C(=O)Nc3cccc(C(F)(F)F)c3)N2)C(=O)O1 (stereo not drawn) | 50.6 µM (inactive) | 43.7 µM (inactive) | > 100 | > 100 µM (inactive) | 56.2 µM (inactive) | 60.3 µM (inactive) | 26.7 µM (inactive) | 50.1 µM (inactive) | 62.5 µM (inactive) | 61.4 µM (inactive) | > 100 µM (inactive) | > 100 µM (inactive) | 84.1 µM (inactive) | > 100 µM (inactive) | 97.7 µM (inactive) | > 100 µM (inactive) | > 100 µM (inactive) | > 100 µM (inactive) | 66.1 µM (inactive) | –
CCCCSC1=N/C(=C\c2ccccc2O)C(=O)N1 | 35.7 µM (inactive) | 53.2 µM (inactive) | 96.6 | > 100 µM (inactive) | 44 µM (inactive) | 49.8 µM (inactive) | 68.9 µM (inactive) | > 100 µM (inactive) | 53.2 µM (inactive) | 66.1 µM (inactive) | > 100 µM (inactive) | > 100 µM (inactive) | 50.5 µM (inactive) | 41.5 µM (inactive) | > 100 µM (inactive) | 57.8 µM (inactive) | > 100 µM (inactive) | 43.8 µM (inactive) | 28.2 µM (inactive) | –
CCO[C@@H]1C2C=CC(C2)[C@H]1[N+](=O)[O-] (stereo partly drawn) | > 100 µM (inactive) | > 100 µM (inactive) | > 100 | > 100 µM (inactive) | > 100 µM (inactive) | > 100 µM (inactive) | > 100 µM (inactive) | > 100 µM (inactive) | > 100 µM (inactive) | > 100 µM (inactive) | > 100 µM (inactive) | > 100 µM (inactive) | > 100 µM (inactive) | > 100 µM (inactive) | > 100 µM (inactive) | > 100 µM (inactive) | > 100 µM (inactive) | > 100 µM (inactive) | > 100 µM (inactive) | –
CCCC/C=C/C=C/C=C/CCCCCCCC(=O)OCC(COC(=O)CCCCCCC/C=C/C1C=CC(CCCC)C(C(=O)O)C1C(=O)O)OC(=O)CCCCCCC/C=C/C=C/C=C/CCCC.OCCNCO (stereo not drawn) | 19 µM (inactive) | 23.4 µM (inactive) | 16.2 | 18.6 µM (inactive) | 23.8 µM (inactive) | 18.7 µM (inactive) | 23.7 µM (inactive) | 20.9 µM (inactive) | 33.8 µM (inactive) | 17 µM (inactive) | 20.2 µM (inactive) | 19.6 µM (inactive) | – | 19 µM (inactive) | 18.3 µM (inactive) | 15.8 µM (inactive) | 23.7 µM (inactive) | – | 15.3 µM (inactive) | –
COc1nc(N)nc2c1n(C)c[n+]2C | > 100 µM (inactive) | – | > 100 | > 100 µM (inactive) | > 100 µM (inactive) | > 100 µM (inactive) | > 100 µM (inactive) | > 100 µM (inactive) | > 100 µM (inactive) | – | > 100 µM (inactive) | > 100 µM (inactive) | > 100 µM (inactive) | > 100 µM (inactive) | > 100 µM (inactive) | > 100 µM (inactive) | > 100 µM (inactive) | > 100 µM (inactive) | > 100 µM (inactive) | –
O=C(CC1=Nc2nnc(-c3nnc4n3C(=O)C(CC(=O)c3cccnc3)=N4)n2C1=O)c1cccnc1 | – | > 100 µM (inactive) | > 100 | > 100 µM (inactive) | > 100 µM (inactive) | > 100 µM (inactive) | > 100 µM (inactive) | > 100 µM (inactive) | > 100 µM (inactive) | > 100 µM (inactive) | > 100 µM (inactive) | – | > 100 µM (inactive) | > 100 µM (inactive) | > 100 µM (inactive) | > 100 µM (inactive) | > 100 µM (inactive) | > 100 µM (inactive) | > 100 µM (inactive) | –
CCN1C(=O)C(=C/C=C/c2ccc(OC)cc2)C(=O)N(CC)C1=S | 24 µM (inactive) | 53.2 µM (inactive) | 17.5 | 18.6 µM (inactive) | 14.2 µM (inactive) | 20.3 µM (inactive) | 25.7 µM (inactive) | 12.5 µM (inactive) | 30.7 µM (inactive) | 95.5 µM (inactive) | > 100 µM (inactive) | 21.4 µM (inactive) | 17.2 µM (inactive) | 19.6 µM (inactive) | – | > 100 µM (inactive) | 23.1 µM (inactive) | 18.9 µM (inactive) | – | –
O=C1/C(=C/c2ccccc2Cl)COc2ccccc21 | 16 µM (inactive) | 20.9 µM (inactive) | – | 16.9 µM (inactive) | 15.1 µM (inactive) | 10.8 µM (inactive) | 5.79 µM (inactive) | 15.5 µM (inactive) | 20.5 µM (inactive) | – | 17.8 µM (inactive) | 17.2 µM (inactive) | 15.5 µM (inactive) | 17.3 µM (inactive) | 16.3 µM (inactive) | 15.5 µM (inactive) | 32.6 µM (inactive) | 13.7 µM (inactive) | 16.6 µM (inactive) | –

Reference: ChEMBL document CHEMBL1201862, “PubChem BioAssay data set” (2004)
